Measured values as given in patent US8821568B2, “Implant modified with non-hydroxylated vitamin D precursors” (Numat Biomedical S.L., priority 2008, dated 2014).

Key:
MC3T3-E1 cells [1] = assay: Real-time RT-PCR of bone markers, plastic wells; assay type: cell-based, mouse; settings: TCP, 2 days
Experimental: To test the effect of the different treatments onto the plastic wells, 96-well plates made of polystyrene were used and the treatments with 7-DHC performed directly onto them. Cells grown onto untreated TCP were added as a control for all the experiments. Cells were seeded at a density of 30,000 cells/cm^2 and they were maintained in α-MEM supplemented with 10% FCS and antibiotics. Culture media was collected after 48 hours, to test cytotoxicity and the production of the hydroxylated forms of vitamin D. Cells were harvested after 2 days of culture using Trizol reagent (Roche Diagnostics, Mannheim, Germany), to analyse early gene expression response of several osteoblast differentiation markers and enzymes involved in vitamin D synthesis using real-time RT-PCR.
RNA was isolated from cells using a monophasic solution of phenol and guanidine thiocyanate (Trizol, Roche Diagnostics, Mannheim, Germany) according to the manufacturer's protocol. RNA was quantified at 260 nm using a Nanodrop spectrophotometer (NanoDrop Technologies, Wilmington, Del., USA).
Total RNA previously isolated was reverse-transcribed to cDNA using High Capacity RNA to cDNA kit (Applied Biosystems, Foster City, Calif.) according to the protocol of the supplier. The same amount of total RNA from each sample was converted into cDNA. Each cDNA was diluted ¼ and aliquots were stored at −20° C. until the PCR reactions were carried out.
Real-time RT-PCR was performed for two reference genes: 18S ribosomal RNA (18S rRNA), glyceraldehyde-3-phosphate dehydrogenase (GAPDH), and 11 target genes alkaline phospathase (ALP), Interleukin 6 (IL-6), Collagen (Coll-1), Osteocalcin (OC), Bone Morphogenetic Protein 2 (BMP-2), Osterix (Osx), Receptor activator of nuclear factor kappa-B ligand (RANKL), Osteoprogesterin (OPG) and genes involved in vitamin D synthesis such as Vitamin D3 25-hydroxylase (CYP27A1), 25 hydroxyvitamin D3-1-alpha hydroxylase (CYP27B1) and 1,25-dihydroxyvitamin D3 24-hydroxylase (CYP24A1).
Real-time PCR were performed in the Lightcycler 480® (Roche Diagnostics, Germany). Each reaction contained 5 μl of LightCycler-FastStart DNA Master^PLUS SYBR Green I (Roche Diagnostics, Mannheim, Germany), 0.5 μM of the sense and antisense specific primers (Table 1) and 3 μl of the cDNA dilution in a final volume of 10 μl. The normal amplification program consisted of a preincubation step for denaturation of the template cDNA (10 min 95° C.), followed by 45 cycles consisting of a denaturation step (10 s 95° C.), an annealing step (10 s 60° C., except for ALP that was 10 s at 65° C., OSX with 10 s at 68° C. and CYP24A1 at 58° C. 10 s) and an extension step (10 s 72° C.). After each cycle, fluorescence was measured at 72° C. Every run included a negative control without cDNA template. To confirm amplification specificity, PCR products were subjected to a melting curve analysis on the LightCycler and subsequently 2% agarose/TAE gel electrophoresis, Tm and amplicon size, respectively.
To allow relative quantification after PCR, real-time efficiencies were calculated from the given slopes in the LightCycler 480 software (Roche Diagnostics, Mannheim, Germany) using serial dilutions. Relative quantification after PCR was calculated by normalizing target gene concentration in each sample by the concentration mean of the two reference genes in given sample using the “advanced relative quantification method” provided by the LightCycler 480 analysis software.

MC3T3-E1 cells [2] = assay: Real-time RT-PCR of hydroxylase enzymes (CYP27A1, CYP27B1), coated titanium implants; assay type: cell-based, mouse; settings: Ti implants, 48 h
Experimental: To test the effect of the surface modification, 96-well plates were used. Ti disks were placed into the wells and treatments and UV-activation were performed over there. Cells grown onto untreated polystyrene tissue culture plastic (TCP) were added as a control for all the experiments. Cells were seeded at a density of 30,000 cells/cm^2 and they were maintained in α-MEM supplemented with 10% FCS and antibiotics. Culture media was collected after 48 hours, to test cytotoxicity and the production of the hydroxylated form of vitamin D, 25-D3. […]
RNA was isolated from cells using a monophasic solution of phenol and guanidine thiocyanate (Trizol, Roche Diagnostics, Mannheim, Germany) according to the manufacturer's protocol. RNA was quantified at 260 nm using a Nanodrop spectrophotometer (NanoDrop Technologies, Wilmington, Del., USA). […]
To allow relative quantification after PCR, real-time efficiencies were calculated from the given slopes in the LightCycler 480 software (Roche Diagnostics, Mannheim, Germany) using serial dilutions. Relative quantification after PCR was calculated by normalizing target gene concentration in each sample by the concentration mean of the two reference genes in given sample using the Advanced relative quantification method provided by the LightCycler 480 analysis software.

Structure (SMILES): CC(C)CCC[C@@H](C)[C@H]1CC[C@H]2C3=CC=C4C[C@@H](O)CC[C@]4(C)[C@H]3CC[C@]12C [7-DHC, 7-dehydrocholesterol]
- Collagen type-1 mRNA levels (MC3T3-E1 cells [1]; 0.2 nmols UV-treated vs same treatment non UV-irradiated): increased mRNA levels
- Osteocalcin mRNA levels (MC3T3-E1 cells [1]; 2 nmols UV-treated vs same treatment non UV-irradiated): statistical differences
- Bone morphogenetic protein 2 mRNA levels (MC3T3-E1 cells [1]; 2×10^−2 nmols UV-treated vs non-irradiated): significantly lower levels
- ALP mRNA levels (MC3T3-E1 cells [1]; 2×10^−3 nmols UV-treated vs same treatment non UV-irradiated): Higher ALP mRNA levels
- Osterix expression levels (MC3T3-E1 cells [1]; all UV-treated groups vs non irradiated, significant at 0.2 and 2 nmols): Higher expression levels
- IL-6 mRNA levels (MC3T3-E1 cells [1]; different doses, UV-treated vs UV-untreated): No significant differences
- RANKL mRNA levels (MC3T3-E1 cells [1]; some UV-untreated samples compared to their control): lower
- CYP27B1 gene expression (MC3T3-E1 cells [2]; increasing UV exposure time, significant vs UV-untreated at 15 and 30 min): upregulated
- CYP27A1 mRNA gene expression (MC3T3-E1 cells [2]; with UV irradiation time, maximum after 15 min): trend to increase
